Test results reported in BindingDB's records for doi:10.1016/j.bmc.2015.01.038 (Technical University of Denmark, 2015).
pIC50: −log10 of the molar value.

test: Antagonist activity at lasB in Pseudomonas aeruginosa harboring lasB-gfp gene assessed as inhibition of […]-induced quorum sensing by green fluorescence protein reporter assay

Q: With `O=C(Cn1cc(C2CCCC2)nn1)N[C@H]1CCOC1=O` as the compound, how does the pIC50 read?
A: 3.21

Q: With `O=C(Cn1cc(-c2ccsc2)nn1)N[C@H]1CCOC1=O` as the compound, how does the pIC50 read?
A: 3.24

Q: With `O=C(Cn1cc(C2CCCCC2)nn1)N[C@H]1CCOC1=O` as the compound, how does the pIC50 read?
A: 3.05

Q: With `[N-]=[N+]=Nc1ccc(C(=O)N[C@H]2CCOC2=O)cc1` as the compound, how does the pIC50 read?
A: 2.96

Q: With `O=C(Cn1cc(CSc2ccccc2)nn1)N[C@H]1CCOC1=O` as the compound, how does the pIC50 read?
A: 3.16

Q: With `O=C(Cn1cc(C2CC2)nn1)N[C@H]1CCOC1=O` as the compound, how does the pIC50 read?
A: 3.30

Q: With `CCCc1cn(CC(=O)N[C@H]2CCOC2=O)nn1` as the compound, how does the pIC50 read?
A: 3.17

Q: With `O=Cc1cccc(-n2cc(CCC(=O)N[C@H]3CCOC3=O)nn2)c1` as the compound, how does the pIC50 read?
A: 3.42

Q: With `CCCCCCc1cn(CC(=O)N[C@H]2CCOC2=O)nn1` as the compound, how does the pIC50 read?
A: 3.37
